In patent US11970479B2, “3-(1H-pyrazol-4-yl)pyridine allosteric modulators of the M4 muscarinic acetylcholine receptor” (Merck Sharp & Dohme LLC, priority 2018, dated 2024) one finds EC50 data, which are given here for 30 compounds.

For the assay, the target named is T1, human M4 muscarinic acetylcholine receptor (Homo sapiens, UniProt P08173).
T1 construct: expressed in transfected cells
T1 sequence (P08173 1-479): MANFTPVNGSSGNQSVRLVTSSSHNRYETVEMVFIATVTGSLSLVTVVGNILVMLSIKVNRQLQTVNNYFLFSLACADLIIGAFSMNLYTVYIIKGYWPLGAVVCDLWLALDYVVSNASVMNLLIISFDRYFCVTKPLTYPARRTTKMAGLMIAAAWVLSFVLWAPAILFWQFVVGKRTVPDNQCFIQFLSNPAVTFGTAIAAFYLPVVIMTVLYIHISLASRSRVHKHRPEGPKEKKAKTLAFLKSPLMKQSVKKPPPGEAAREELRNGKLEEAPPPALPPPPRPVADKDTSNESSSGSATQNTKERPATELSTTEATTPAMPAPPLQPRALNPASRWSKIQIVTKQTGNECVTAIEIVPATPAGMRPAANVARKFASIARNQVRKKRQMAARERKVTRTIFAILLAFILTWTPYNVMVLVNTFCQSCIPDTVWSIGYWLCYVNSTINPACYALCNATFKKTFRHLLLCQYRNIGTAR
Kind of assay: human FLIPR-based M4 PAM assay (CHO-K1 cells with human M4 receptor and Gαqi5, calcium dye fluorescence, EC20 acetylcholine). The format is cell-based. Particulars: inflection point (IP) of the dose response curve, human M4 receptor/Gαqi5, acetylcholine at 20% of maximum response, read-out: M4PAM Hu IP. As to the method: (§1) In a typical experiment the M4 muscarinic acetylcholine receptor modulating activity of the compounds of the present invention was determined in accordance with the following experimental method. CHO-K1 cells stably transfected with human M4 receptor and chimeric G-protein Gαqi5 (Coward P, et al., Analytical Biochemistry, 270:242-248 (1999)) are thawed from liquid N2 storage, resuspended in growth medium, plated in black, clear bottom 384 well plates, and incubated 16-20 hours at 37° C., 5% CO2. On the day of assay, growth medium is removed, the cells are washed 2 times with wash buffer, and cells are incubated in dye loading buffer at 37° C., 5% CO2 for ˜1 hour. Following dye loading the cell plates are placed in a FLIPR Tetra instrument and while monitoring dye fluorescence (excitation […]), 10 uL of test substance at increasing concentrations is added, and fluorescence values are recorded for 4 min. Next, 10 uL of acetylcholine is added (final concentration calculated so as to achieve 20% of the maximum acetycholine response), and the fluorescence reading is continued for 3.5 min. In some cases, a third addition of acetylcholine (final concentration calculated to achieve 70% of the maximal acetylcholine response) is performed. The resulting dose response curves are fit to a 4 parameter logistic equation and the final result is determined as the inflection point (IP) of the curve
as §1, with “CHO-K1” for “In a typical experiment the M4 muscarinic acetylcholine receptor modulating activity of the compounds of the present invention was determined in accordance with the following experimental method. CHO-K1”, “Gαqi5” for “Gαqi5 (Coward P, et al., Analytical Biochemistry, 270:242-248 (1999))”, “performed.” for “performed. The resulting dose response curves are fit to a 4 parameter logistic equation and the final result is determined as the inflection point (IP) of the curve”
In the case of `Cc1nc(-c2ccc3cccnc3c2)c(-c2cnn(CC3(C(F)(F)F)CC3)c2)cc1C#N` [Example 56, 2-methyl-6-quinolin-7-yl-5-(1-{[1-(trifluoromethyl)cyclopropyl]methyl}-1H-pyrazol-4-yl)pyridine-3-carbonitrile], the EC50 came to 275 nM. Consider `COc1cc2ccc(-c3nc(C)c(C#N)cc3-c3cnn(CC4(C(F)(F)F)CC4)c3)cc2nn1` [Example 57, 6-(3-methoxycinnolin-7-yl)-2-methyl-5-(1-{[1-(trifluoromethyl)cyclopropyl]methyl}-1H-pyrazol-4-yl)pyridine-3-carbonitrile], for which the EC50 amounted to 243 nM. Under `CC(C)(C)Cn1ncc(-c2ccc(C#N)nc2-c2ccc3cccnc3c2)c1F` [Example 58, 5-[1-(2,2-dimethylpropyl)-5-fluoro-1H-pyrazol-4-yl]-6-quinolin-7-ylpyridine-2-carbonitrile] stands 51 nM; under `N#Cc1ccc(-c2cnn(CC3(C(F)(F)F)CC3)c2F)c(-c2ccc3cccnc3c2)n1` [Example 59, 5-(5-fluoro-1-{[1-(trifluoromethyl)cyclopropyl]methyl}-1H-pyrazol-4-yl)-6-quinolin-7-ylpyridine-2-carbonitrile], 57 nM; under `CC(C)C(=O)Cn1cc(-c2ccc(C#N)nc2-c2ccc3cccnc3c2)cn1` [Example 60, 5-[1-(3-methyl-2-oxobutyl)-1H-pyrazol-4-yl]-6-quinolin-7-ylpyridine-2-carbonitrile], 181 nM.

Regarding `CC(C)C(F)(F)Cn1cc(-c2ccc(C#N)nc2-c2ccc3cccnc3c2)cn1` [Example 61, 5-[1-(2,2-difluoro-3-methylbutyl)-1H-pyrazol-4-yl]-6-quinolin-7-ylpyridine-2-carbonitrile], the EC50 came to 26 nM. Under `CC(C)CCn1cc(-c2cccnc2-c2ccc3ccc(Cl)nc3c2)cn1` [Example 62, 2-chloro-7-{3-[1-(3-methylbutyl)-1H-pyrazol-4-yl]pyridin-2-yl}quinoline] stands 84 nM.

With `CC(C)CCn1cc(-c2ccc(Cl)nc2-c2ccc3cccnc3c2)cn1` [Example 63, 7-{6-chloro-3-[1-(3-methylbutyl)-1H-pyrazol-4-yl]pyridin-2-yl}quinoline], the EC50 is 26 nM. To `CC(C)CCn1cc(-c2c(Cl)ccnc2-c2ccc3cccnc3c2)cn1` [Example 64, 7-{4-chloro-3-[1-(3-methylbutyl)-1H-pyrazol-4-yl]pyridin-2-yl}quinoline] belongs 295 nM; to `CC(C)CCn1cc(-c2ccc(F)nc2-c2ccc3cccnc3c2)cn1` [Example 65, 7-{6-fluoro-3-[1-(3-methylbutyl)-1H-pyrazol-4-yl]pyridin-2-yl}quinoline], 95 nM; to `CC(C)CCn1cc(-c2ccc(C#N)nc2-c2ccc3cccnc3c2)cn1` [Example 66, 5-[1-(3-methylbutyl)-1H-pyrazol-4-yl]-6-quinolin-7-ylpyridine-2-carbonitrile], 24 nM. With `CC(C)CCn1cc(-c2ccc(C3=CCOCC3)nc2-c2ccc3cccnc3c2)cn1` [Example 67, 7-{6-(3,6-dihydro-2H-pyran-4-yl)-3-[1-(3-methylbutyl)-1H-pyrazol-4-yl]pyridin-2-yl}quinoline], the EC50 was 121 nM. Under `CC(C)CCn1cc(-c2ccc(-c3ccnn3C)nc2-c2ccc3cccnc3c2)cn1` [Example 68, 7-{3-[1-(3-methylbutyl)-1H-pyrazol-4-yl]-6-(1-methyl-1H-pyrazol-5-yl)pyridin-2-yl}quinoline] stands 118 nM; under `CCCc1ccc(-c2cnn(CCC(C)C)c2)c(-c2ccc3cccnc3c2)n1` [Example 69, 7-{3-[1-(3-methylbutyl)-1H-pyrazol-4-yl]-6-propylpyridin-2-yl}quinoline], 185 nM. Under `CC(C)CCn1cc(-c2ccc(C3CC3)nc2-c2ccc3cccnc3c2)cn1` [Example 70, 7-{6-(cyclopropyl)-3-[1-(3-methylbutyl)-1H-pyrazol-4-yl]pyridin-2-yl}quinoline] stands 233 nM; under `Cc1cnc(-c2ccc3cccnc3c2)c(-c2cnn(CCC(C)C)c2)c1` [Example 71, 7-{5-methyl-3-[1-(3-methylbutyl)-1H-pyrazol-4-yl]pyridin-2-yl}quinoline], 222 nM; under `C=Cc1ccc(-c2cnn(CCC(C)C)c2)c(-c2ccc3cccnc3c2)n1` [Example 72, 7-{6-ethenyl-3-[1-(3-methylbutyl)-1H-pyrazol-4-yl]pyridin-2-yl}quinoline], 191 nM. As to `CCc1ccc(-c2cnn(CCC(C)C)c2)c(-c2ccc3cccnc3c2)n1` [Example 73, 7-{6-ethyl-3-[1-(3-methylbutyl)-1H-pyrazol-4-yl]pyridin-2-yl}quinoline], the EC50 amounted to 140 nM. For `CC(C)CCn1cc(-c2ccc(Br)nc2-c2ccc3cccnc3c2)cn1` [Example 74, 7-{6-bromo-3-[1-(3-methylbutyl)-1H-pyrazol-4-yl]pyridin-2-yl}quinoline], the EC50 was found to be 39 nM. Regarding `COCCOc1ccc(-c2cnn(CCC(C)C)c2)c(-c2ccc3cccnc3c2)n1` [Example 75, 7-{6-(2-methoxyethoxy)-3-[1-(3-methylbutyl)-1H-pyrazol-4-yl]pyridin-2-yl}quinoline], the EC50 worked out at 123 nM.

Turning to `CSc1cnc(-c2ccc3cccnc3c2)c(-c2cnn(CCC(C)C)c2)c1` [Example 76, 7-{3-[1-(3-methylbutyl)-1H-pyrazol-4-yl]-5-(methylsulfanyl)pyridin-2-yl}quinoline], the EC50 amounted to 63 nM. Under `COc1cc2ccc(-c3nc(C)ccc3-c3cnn(CCCC(F)(F)F)c3)cc2nn1` [Example 77, 3-methoxy-7-{6-methyl-3-[1-(4,4,4-trifluorobutyl)-1H-pyrazol-4-yl]pyridin-2-yl}cinnoline] stands 271 nM; under `COc1cc2ccc(-c3nc(C)ccc3-c3cnn(CC4CC(F)(F)C4)c3)cc2nn1` [Example 78, 7-(3-{1-[(3,3-difluorocyclobutyl)methyl]-1H-pyrazol-4-yl}-6-methylpyridin-2-yl)-3-methoxycinnoline], 190 nM.

For `COc1cc2ccc(-c3nc(C)ccc3-c3cnn(CCC4CC(F)(F)C4)c3)cc2nn1` [Example 79, 7-(3-{1-[2-(3,3-difluorocyclobutyl)ethyl]-1H-pyrazol-4-yl}-6-methylpyridin-2-yl)-3-methoxycinnoline], the EC50 amounted to 166 nM. With `COc1cc2ccc(-c3nc(C)ccc3-c3cnn(CCCC(F)=C(F)F)c3)cc2nn1` [Example 80, 3-methoxy-7-{6-methyl-3-[1-(4,5,5-trifluoropent-4-en-1-yl)-1H-pyrazol-4-yl]pyridin-2-yl}cinnoline], the EC50 was 154 nM. Under `COc1cc2ccc(-c3nc(C)ccc3-c3cnn(CCC4CCOC4)c3)cc2nn1` (stereo not drawn) [Example 81, 3-methoxy-7-(6-methyl-3-{1-[2-(tetrahydrofuran-3-yl)ethyl]-1H-pyrazol-4-yl}pyridin-2-yl)cinnoline] stands 228 nM. Consider `COc1cc2ccc(-c3nc(C)ccc3-c3cnn(CC4CCOC4)c3)cc2nn1` (stereo not drawn) [Example 82, 3-methoxy-7-{6-methyl-3-[1-(tetrahydrofuran-3-ylmethyl)-1H-pyrazol-4-yl]pyridin-2-yl}cinnoline], for which the EC50 worked out at 180 nM. Under `COc1cc2ccc(-c3nc(C)ccc3-c3cnn(CC4CC5(CCC5)C4)c3)cc2nn1` [Example 83, 3-methoxy-7-{6-methyl-3-[1-(spiro[3.3]hept-2-ylmethyl)-1H-pyrazol-4-yl]pyridin-2-yl}cinnoline] stands 99 nM; under `COc1cc2ccc(-c3nc(C)ccc3-c3cnn(CC(C)(C)C#N)c3)cc2nn1` [Example 84, 3-{4-[2-(3-methoxycinnolin-7-yl)-6-methylpyridin-3-yl]-1H-pyrazol-1-yl}-2,2-dimethylpropanenitrile], 198 nM. Under `COc1cc2ccc(-c3nc(C)ccc3-c3cnn(CCC(C)(C)C#N)c3)cc2nn1` [Example 85, 4-{4-[2-(3-methoxycinnolin-7-yl)-6-methylpyridin-3-yl]-1H-pyrazol-1-yl}-2,2-dimethylbutanenitrile] stands 199 nM.
